Results taken from patent publication EP4745137A1 (Gluetacs Therapeutics (Shanghai) Co., Ltd., priority 2023, dated 2025).

How the values were obtained:
WEE1 = biological target: T1, WEE1 (Homo sapiens, UniProt P30291+Q96SW2); test: Western-blot assay of substrate protein degradation in hPBMCs, WEE1; type: cell-based; conditions: 24 hours of compound treatment, compounds tested at 50 nM and 500 nM (concentration of the table not stated)
T1 construct: endogenous in cells; host or cells: hPBMCs (Milecell Biotechnologies)

IKZF1 = biological target: T2, IKZF1 (Homo sapiens, UniProt Q13422+Q96SW2); test: Western-blot assay of substrate protein degradation in hPBMCs, IKZF1; type: cell-based; conditions: 24 hours of compound treatment, compounds tested at 50 nM and 500 nM (concentration of the table not stated)
T2 construct: endogenous in cells; host or cells: hPBMCs (Milecell Biotechnologies)

IKZF2 = biological target: T3, IKZF2 (Homo sapiens, UniProt Q96SW2+Q9UKS7); test: Western-blot assay of substrate protein degradation in hPBMCs, IKZF2; type: cell-based; conditions: 24 hours of compound treatment, compounds tested at 50 nM and 500 nM (concentration of the table not stated)
T3 construct: endogenous in cells; host or cells: hPBMCs (Milecell Biotechnologies)

IKZF3 = biological target: T4, IKZF3 (Homo sapiens, UniProt Q96SW2+Q9UKT9); test: Western-blot assay of substrate protein degradation in hPBMCs, IKZF3; type: cell-based; conditions: 24 hours of compound treatment, compounds tested at 50 nM and 500 nM (concentration of the table not stated)
T4 construct: endogenous in cells; host or cells: hPBMCs (Milecell Biotechnologies)

CK1α = biological target: T5, CK1α (Homo sapiens, UniProt P48729+Q96SW2); test: Western-blot assay of substrate protein degradation in hPBMCs, CK1α; type: cell-based; conditions: 24 hours of compound treatment, compounds tested at 50 nM and 500 nM (concentration of the table not stated)
T5 construct: endogenous in cells; host or cells: hPBMCs (Milecell Biotechnologies)

GSPT1 = biological target: T6, GSPT1 (Homo sapiens, UniProt P15170+Q96SW2); test: Western-blot assay of substrate protein degradation in hPBMCs, GSPT1; type: cell-based; conditions: 24 hours of compound treatment, compounds tested at 50 nM and 500 nM (concentration of the table not stated)
T6 construct: endogenous in cells; host or cells: hPBMCs (Milecell Biotechnologies)

[1] = biological target: T7, human Cereblon WT GST-tagged protein (Homo sapiens, UniProt Q96SW2); test: CRBN-binding affinity by HTRF (CEREBLON BINDING kit); conditions: HTRF inhibitory activity, CEREBLON BINDING kit; read-out: HTRF IC50
T7 construct: purchased CISBIO 64BDCRBNPEH

TMD8 = test: Tumor cell proliferation inhibition (CellTiter-Meiluncell Luminescent Cell Viability Assay), TMD8; conditions: Homo sapiens, TMD8, 96 h, read-out: inhibitory activity (IC50, nM) against tumor cells proliferation, TMD8
[2] = tested on: Human acute T lymphocytic leukemia cells (Molt-4); test: Tumor cell proliferation inhibition (CellTiter-Meiluncell Luminescent Cell Viability Assay), Molt-4; conditions: MOLT-4, 96 h, read-out: inhibitory activity (IC50, nM) against tumor cells proliferation, Molt 4
NCI-H1975 = test: Tumor cell proliferation inhibition (CellTiter-Meiluncell Luminescent Cell Viability Assay), NCI-H1975; conditions: Homo sapiens, NCI-H1975, 96 h, read-out: inhibitory activity (IC50, nM) against tumor cells proliferation, H1975
[3] = tested on: Human breast cancer cells (MDA-MB-231); test: Tumor cell proliferation inhibition (CellTiter-Meiluncell Luminescent Cell Viability Assay), MDA-MB-231; conditions: MDA-MB-231, 96 h, read-out: inhibitory activity (IC50, nM) against tumor cells proliferation, MDA-MB-231

T2 sequence (Q13422 whole entry): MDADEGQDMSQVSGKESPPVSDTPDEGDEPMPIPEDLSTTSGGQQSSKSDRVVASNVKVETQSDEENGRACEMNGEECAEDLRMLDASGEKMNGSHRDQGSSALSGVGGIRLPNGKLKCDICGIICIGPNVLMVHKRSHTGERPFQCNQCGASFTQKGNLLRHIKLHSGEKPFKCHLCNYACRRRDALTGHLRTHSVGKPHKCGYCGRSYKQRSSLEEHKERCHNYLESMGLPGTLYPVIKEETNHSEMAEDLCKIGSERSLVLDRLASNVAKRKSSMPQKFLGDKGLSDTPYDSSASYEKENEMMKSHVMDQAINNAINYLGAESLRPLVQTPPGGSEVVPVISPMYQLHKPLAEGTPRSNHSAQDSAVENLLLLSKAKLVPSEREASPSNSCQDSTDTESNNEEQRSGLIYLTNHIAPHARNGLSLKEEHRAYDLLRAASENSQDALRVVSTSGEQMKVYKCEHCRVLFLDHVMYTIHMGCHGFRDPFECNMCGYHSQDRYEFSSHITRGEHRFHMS
T2 sequence (Q96SW2 whole entry): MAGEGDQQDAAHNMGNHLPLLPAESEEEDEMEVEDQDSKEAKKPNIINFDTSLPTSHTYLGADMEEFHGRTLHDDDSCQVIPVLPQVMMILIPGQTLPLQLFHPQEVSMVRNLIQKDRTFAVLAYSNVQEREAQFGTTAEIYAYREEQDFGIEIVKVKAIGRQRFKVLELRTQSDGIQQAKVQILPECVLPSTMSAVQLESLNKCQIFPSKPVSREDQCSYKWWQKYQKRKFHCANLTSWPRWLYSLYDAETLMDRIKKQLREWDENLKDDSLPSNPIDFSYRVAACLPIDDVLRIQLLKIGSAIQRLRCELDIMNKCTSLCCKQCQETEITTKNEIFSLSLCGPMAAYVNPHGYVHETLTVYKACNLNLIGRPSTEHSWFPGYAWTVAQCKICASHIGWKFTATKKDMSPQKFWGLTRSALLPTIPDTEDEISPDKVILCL
T2 sequence (Q16531 whole entry partner): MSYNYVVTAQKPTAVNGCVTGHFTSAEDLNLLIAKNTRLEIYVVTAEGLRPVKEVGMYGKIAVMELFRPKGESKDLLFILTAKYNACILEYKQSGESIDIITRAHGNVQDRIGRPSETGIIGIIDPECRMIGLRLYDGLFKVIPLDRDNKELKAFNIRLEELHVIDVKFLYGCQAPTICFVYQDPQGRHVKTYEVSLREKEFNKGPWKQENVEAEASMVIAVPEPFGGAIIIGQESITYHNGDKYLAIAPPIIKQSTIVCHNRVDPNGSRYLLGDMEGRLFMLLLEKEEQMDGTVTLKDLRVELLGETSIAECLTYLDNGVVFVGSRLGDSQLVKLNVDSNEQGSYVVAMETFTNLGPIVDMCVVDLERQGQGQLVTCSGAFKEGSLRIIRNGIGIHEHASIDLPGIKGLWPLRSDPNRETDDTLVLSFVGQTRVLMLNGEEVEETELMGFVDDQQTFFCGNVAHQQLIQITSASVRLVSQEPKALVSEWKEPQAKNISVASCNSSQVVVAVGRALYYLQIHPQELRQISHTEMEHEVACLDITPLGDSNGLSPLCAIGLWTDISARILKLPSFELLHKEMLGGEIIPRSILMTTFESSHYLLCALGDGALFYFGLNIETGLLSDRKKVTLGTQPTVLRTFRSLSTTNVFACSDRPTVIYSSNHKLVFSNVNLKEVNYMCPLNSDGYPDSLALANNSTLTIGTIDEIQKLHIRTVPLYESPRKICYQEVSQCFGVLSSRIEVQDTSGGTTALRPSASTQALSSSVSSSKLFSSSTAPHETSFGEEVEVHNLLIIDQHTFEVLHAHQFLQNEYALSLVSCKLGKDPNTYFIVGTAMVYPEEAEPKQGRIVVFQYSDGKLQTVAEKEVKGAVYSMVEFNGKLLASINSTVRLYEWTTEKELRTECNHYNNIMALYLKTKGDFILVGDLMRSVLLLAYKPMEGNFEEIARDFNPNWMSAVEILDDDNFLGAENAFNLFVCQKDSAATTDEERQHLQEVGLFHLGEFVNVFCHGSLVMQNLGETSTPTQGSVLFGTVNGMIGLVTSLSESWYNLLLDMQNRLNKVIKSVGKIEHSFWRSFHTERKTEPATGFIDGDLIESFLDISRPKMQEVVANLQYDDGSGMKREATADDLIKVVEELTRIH
T6 sequence (P15170 whole entry): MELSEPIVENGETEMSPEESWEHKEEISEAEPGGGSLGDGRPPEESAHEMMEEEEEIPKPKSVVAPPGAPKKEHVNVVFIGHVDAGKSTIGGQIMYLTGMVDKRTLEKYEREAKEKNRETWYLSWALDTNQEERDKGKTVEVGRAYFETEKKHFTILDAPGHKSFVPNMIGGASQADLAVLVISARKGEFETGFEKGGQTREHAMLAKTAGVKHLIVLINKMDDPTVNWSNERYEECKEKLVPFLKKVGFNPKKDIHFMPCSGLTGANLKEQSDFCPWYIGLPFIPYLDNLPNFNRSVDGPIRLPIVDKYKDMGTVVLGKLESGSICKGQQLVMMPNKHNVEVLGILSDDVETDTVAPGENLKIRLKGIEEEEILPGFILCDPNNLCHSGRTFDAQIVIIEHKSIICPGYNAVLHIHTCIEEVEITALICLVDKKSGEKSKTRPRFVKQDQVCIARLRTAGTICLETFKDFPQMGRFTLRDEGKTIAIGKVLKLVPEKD
T6 sequence (Q96SW2 whole entry): as the sequence (Q96SW2 whole entry) above
T6 sequence (Q16531 whole entry partner): as the sequence (Q16531 whole entry partner) above
T1 sequence (P30291 whole entry): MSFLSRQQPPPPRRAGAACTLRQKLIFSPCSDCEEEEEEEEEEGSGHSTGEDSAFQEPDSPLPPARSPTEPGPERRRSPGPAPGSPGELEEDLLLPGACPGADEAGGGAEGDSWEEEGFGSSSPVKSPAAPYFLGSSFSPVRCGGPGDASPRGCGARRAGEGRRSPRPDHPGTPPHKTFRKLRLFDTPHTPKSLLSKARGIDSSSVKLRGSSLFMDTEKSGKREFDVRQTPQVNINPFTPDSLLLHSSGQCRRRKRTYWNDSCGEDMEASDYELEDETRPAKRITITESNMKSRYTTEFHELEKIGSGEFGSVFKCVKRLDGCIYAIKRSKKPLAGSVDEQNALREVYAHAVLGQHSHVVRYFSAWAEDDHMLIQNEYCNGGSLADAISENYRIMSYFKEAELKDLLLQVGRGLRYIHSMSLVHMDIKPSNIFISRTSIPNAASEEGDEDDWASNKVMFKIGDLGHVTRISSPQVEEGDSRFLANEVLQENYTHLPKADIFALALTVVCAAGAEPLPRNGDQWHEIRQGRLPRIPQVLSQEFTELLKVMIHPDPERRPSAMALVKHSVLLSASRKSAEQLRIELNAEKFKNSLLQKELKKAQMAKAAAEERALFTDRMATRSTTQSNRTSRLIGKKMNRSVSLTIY
T1 sequence (Q96SW2 whole entry): as the sequence (Q96SW2 whole entry) above
T1 sequence (Q16531 whole entry partner): as the sequence (Q16531 whole entry partner) above
T3 sequence (Q9UKS7 whole entry): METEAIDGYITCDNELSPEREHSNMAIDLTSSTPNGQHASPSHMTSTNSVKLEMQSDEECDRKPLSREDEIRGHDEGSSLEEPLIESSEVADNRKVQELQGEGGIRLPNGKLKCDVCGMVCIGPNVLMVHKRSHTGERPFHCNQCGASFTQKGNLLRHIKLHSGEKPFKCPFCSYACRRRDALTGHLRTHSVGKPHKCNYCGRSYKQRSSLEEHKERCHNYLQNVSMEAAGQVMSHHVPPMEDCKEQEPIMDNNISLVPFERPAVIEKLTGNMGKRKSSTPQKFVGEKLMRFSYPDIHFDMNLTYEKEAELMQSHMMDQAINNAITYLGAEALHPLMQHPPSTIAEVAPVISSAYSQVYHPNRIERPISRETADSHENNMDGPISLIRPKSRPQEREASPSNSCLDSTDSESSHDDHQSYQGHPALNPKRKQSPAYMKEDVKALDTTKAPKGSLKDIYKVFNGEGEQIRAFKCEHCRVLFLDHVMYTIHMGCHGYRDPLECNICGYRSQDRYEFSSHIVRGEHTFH
T3 sequence (Q96SW2 whole entry): as the sequence (Q96SW2 whole entry) above
T3 sequence (Q16531 whole entry partner): as the sequence (Q16531 whole entry partner) above
T4 sequence (Q9UKT9 whole entry): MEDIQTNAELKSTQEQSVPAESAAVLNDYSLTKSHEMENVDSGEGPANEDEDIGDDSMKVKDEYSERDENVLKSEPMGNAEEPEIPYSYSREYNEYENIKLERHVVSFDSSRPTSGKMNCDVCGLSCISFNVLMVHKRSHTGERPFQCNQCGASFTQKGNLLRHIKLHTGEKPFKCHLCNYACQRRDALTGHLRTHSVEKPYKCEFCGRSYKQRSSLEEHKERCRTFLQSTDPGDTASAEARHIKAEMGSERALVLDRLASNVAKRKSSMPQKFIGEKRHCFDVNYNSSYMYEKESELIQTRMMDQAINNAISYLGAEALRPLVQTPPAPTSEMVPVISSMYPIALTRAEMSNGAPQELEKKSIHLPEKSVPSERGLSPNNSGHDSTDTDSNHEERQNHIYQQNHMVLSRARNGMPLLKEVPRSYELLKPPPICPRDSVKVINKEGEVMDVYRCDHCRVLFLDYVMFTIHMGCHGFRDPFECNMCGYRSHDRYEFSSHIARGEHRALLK
T4 sequence (Q96SW2 whole entry): as the sequence (Q96SW2 whole entry) above
T4 sequence (Q16531 whole entry partner): as the sequence (Q16531 whole entry partner) above
T7 sequence (Q96SW2 whole entry): as the sequence (Q96SW2 whole entry) above

| Structure (SMILES) | Weel substrate protein remaining % (WEE1) | IKZF 1 substrate protein remaining % (IKZF1) | IKZF2 substrate protein remaining % (IKZF2) | IKZF3 substrate protein remaining % (IKZF3) | CK1a substrate protein remaining % (CK1α) | GSPT1 substrate protein remaining % (GSPT1) | IC50 [1] | IC50 (TMD8) | IC50 [2] | IC50 (NCI-H1975) | IC50 [3] |
| --- | --- | --- | --- | --- | --- | --- | --- | --- | --- | --- | --- |
| Cc1cc2c(C3=CCN(Cc4ccc5c(c4)CN(C4CCC(=O)NC4=O)C5=O)CC3)ncnc2s1 (centres unmarked) [GT-04704, 3-(5-((4-(6-methylthieno[2,3-d]pyrimidin-4-yl)-3,6-dihydropyridin-1(2H)-yl)methyl)-1-oxoisoindolin-2-yl)piperidine-2,6-dione] | A (0% ≤ substrate protein remaining % ≤ 80%) | A (0% ≤ substrate protein remaining % ≤ 80%) | A (0% ≤ substrate protein remaining % ≤ 80%) | A (0% ≤ substrate protein remaining % ≤ 80%) | A (0% ≤ substrate protein remaining % ≤ 80%) | A (0% ≤ substrate protein remaining % ≤ 80%) | < 0.5 µM | 10 to 50 nM | 1 to 5 nM | 10 to 50 nM | 10 to 50 nM |
| Cc1cc(C2CCN(Cc3ccc4c(c3)CN(C3CCC(=O)NC3=O)C4=O)CC2)cs1 (centres unmarked) [GT-04588, 3-(5-((4-(5-methylthiophen-3-yl)piperidin-1-yl)methyl)-1-oxoisoindolin-2-yl)piperidine-2,6-dione] | B (80%< substrate protein remaining %≤ 100%) | B (80%< substrate protein remaining %≤ 100%) | A (0% ≤ substrate protein remaining % ≤ 80%) | B (80%< substrate protein remaining %≤ 100%) | B (80%< substrate protein remaining %≤ 100%) | A (0% ≤ substrate protein remaining % ≤ 80%) | 1 to 1.5 µM | 100 to 500 nM | 5 to 10 nM | 50 to 100 nM | 10 to 50 nM |
| O=C1CCC(N2Cc3cc(CN4CCC(c5c[nH]c6cc(F)ccc56)CC4)ccc3C2=O)C(=O)N1 (centres unmarked) [GT-04713, 3-(5-((4-(6-fluoro-1H-indol-3-yl)piperidin-1-yl)methyl)-1-oxoisoindolin-2-yl)piperidine-2,6-dione] | A (0% ≤ substrate protein remaining % ≤ 80%) | A (0% ≤ substrate protein remaining % ≤ 80%) | A (0% ≤ substrate protein remaining % ≤ 80%) | A (0% ≤ substrate protein remaining % ≤ 80%) | A (0% ≤ substrate protein remaining % ≤ 80%) | A (0% ≤ substrate protein remaining % ≤ 80%) | 0.5 to 1 µM | 10 to 50 nM | 1 to 5 nM | 5 to 10 nM | 1 to 5 nM |
| O=C1CCC(N2Cc3cc(CN4CC=C(c5ncnc6sccc56)CC4)ccc3C2=O)C(=O)N1 (centres unmarked) [GT-04692, 3-(1-oxo-5-((4-(thieno[2,3-d]pyrimidin-4-yl)-3,6-dihydropyridin-1(2H)-yl)methyl)isoindolin-2-yl)piperidine-2,6-dione] | A (0% ≤ substrate protein remaining % ≤ 80%) | A (0% ≤ substrate protein remaining % ≤ 80%) | A (0% ≤ substrate protein remaining % ≤ 80%) | A (0% ≤ substrate protein remaining % ≤ 80%) | A (0% ≤ substrate protein remaining % ≤ 80%) | A (0% ≤ substrate protein remaining % ≤ 80%) | < 0.5 µM | 10 to 50 nM | 1 to 5 nM | 50 to 100 nM | 10 to 50 nM |
| O=C1CCC(N2Cc3cc(CN4CCC(c5cccs5)CC4)ccc3C2=O)C(=O)N1 (centres unmarked) [GT-04571, 3-(1-oxo-5-((4-(thiophen-2-yl)piperidin-1-yl)methyl)isoindolin-2-yl)piperidine-2,6-dione] | A (0% ≤ substrate protein remaining % ≤ 80%) | A (0% ≤ substrate protein remaining % ≤ 80%) | A (0% ≤ substrate protein remaining % ≤ 80%) | A (0% ≤ substrate protein remaining % ≤ 80%) | A (0% ≤ substrate protein remaining % ≤ 80%) | A (0% ≤ substrate protein remaining % ≤ 80%) | 1 to 1.5 µM | 100 to 500 nM | 5 to 10 nM | 50 to 100 nM | 10 to 50 nM |
| O=C1CCC(N2Cc3cc(CN4CC=C(c5ccsc5)CC4)ccc3C2=O)C(=O)N1 (centres unmarked) [GT-04585, 3-(1-oxo-5-((4-(thiophen-3-yl)-3,6-dihydropyridin-1(2H)-yl)methyl)isoindolin-2-yl)piperidine-2,6-dione] | A (0% ≤ substrate protein remaining % ≤ 80%) | A (0% ≤ substrate protein remaining % ≤ 80%) | A (0% ≤ substrate protein remaining % ≤ 80%) | A (0% ≤ substrate protein remaining % ≤ 80%) | A (0% ≤ substrate protein remaining % ≤ 80%) | A (0% ≤ substrate protein remaining % ≤ 80%) | < 0.5 µM | 10 to 50 nM | 1 to 5 nM | 10 to 50 nM | 5 to 10 nM |
| O=C1CCC(N2Cc3cc(CN4CCC(c5nccc(Cl)c5Cl)CC4)ccc3C2=O)C(=O)N1 (centres unmarked) [GT-04690, 3-(5-((4-(3,4-dichloropyridin-2-yl)piperidin-1-yl)methyl)-1-oxoisoindolin-2-yl)piperidine-2,6-dione] | A (0% ≤ substrate protein remaining % ≤ 80%) | A (0% ≤ substrate protein remaining % ≤ 80%) | A (0% ≤ substrate protein remaining % ≤ 80%) | A (0% ≤ substrate protein remaining % ≤ 80%) | A (0% ≤ substrate protein remaining % ≤ 80%) | A (0% ≤ substrate protein remaining % ≤ 80%) | 0.5 to 1 µM | 500 to 1000 nM | 5 to 10 nM | 100 to 500 nM | 50 to 100 nM |
| O=C1CCC(N2Cc3cc(CN4CCN(c5nccc(Cl)c5Br)CC4)ccc3C2=O)C(=O)N1 (centres unmarked) [GT-04615, 3-(5-((4-(3-bromo-4-chloropyridin-2-yl)piperazin-1-yl)methyl)-1-oxoisoindolin-2-yl)piperidine-2,6-dione] | A (0% ≤ substrate protein remaining % ≤ 80%) | A (0% ≤ substrate protein remaining % ≤ 80%) | A (0% ≤ substrate protein remaining % ≤ 80%) | A (0% ≤ substrate protein remaining % ≤ 80%) | A (0% ≤ substrate protein remaining % ≤ 80%) | A (0% ≤ substrate protein remaining % ≤ 80%) | 0.5 to 1 µM | 500 to 1000 nM | 10 to 50 nM | 100 to 500 nM | 100 to 500 nM |
| O=C1CCC(N2Cc3cc(CN4CCC(N5CCc6cc(F)ccc65)CC4)ccc3C2=O)C(=O)N1 (centres unmarked) [GT-04650, 3-(5-((4-(5-fluoroindolin-1-yl)piperidin-1-yl)methyl)-1-oxoisoindolin-2-yl)piperidine-2,6-dione] | A (0% ≤ substrate protein remaining % ≤ 80%) | A (0% ≤ substrate protein remaining % ≤ 80%) | A (0% ≤ substrate protein remaining % ≤ 80%) | A (0% ≤ substrate protein remaining % ≤ 80%) | B (80%< substrate protein remaining %≤ 100%) | A (0% ≤ substrate protein remaining % ≤ 80%) | < 0.5 µM | 100 to 500 nM | 10 to 50 nM | 50 to 100 nM | 50 to 100 nM |
| O=C1CCC(N2Cc3cc(CN4CC=C(c5ncccc5F)CC4)ccc3C2=O)C(=O)N1 (centres unmarked) [GT-04689, 3-(5-((3-fluoro-3',6'-dihydro-[2,4'-bipyridin]-1'(2'H)-yl)methyl)-1-oxoisoindolin-2-yl)piperidine-2,6-dione] | A (0% ≤ substrate protein remaining % ≤ 80%) | A (0% ≤ substrate protein remaining % ≤ 80%) | A (0% ≤ substrate protein remaining % ≤ 80%) | A (0% ≤ substrate protein remaining % ≤ 80%) | A (0% ≤ substrate protein remaining % ≤ 80%) | A (0% ≤ substrate protein remaining % ≤ 80%) | < 0.5 µM | 50 to 100 nM | 5 to 10 nM | 50 to 100 nM | 10 to 50 nM |
